In patent US20250296938A1, “Compounds that Interact with the Ras Superfamily for the Treatment of Cancers, Inflammatory Diseases, Rasopathies, and Fibrotic Disease” (SHY Therapeutics, LLC, priority 2018, published 2025):
Like-named read-outs stand apart in the source and are kept apart here.

Experiments:
Experiment in all cases: Ras GTP binding domain inhibition assay (Cy3-GTP/Cy5-GTP competition)
[1] = target: T1, KRas G12D mutant (Homo sapiens, UniProt P01116, G12D); details: at 20 μM
T1 construct: fused on or other part: His tag, used for capture on nickel-coated plates
How it was run: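 Ni-plate immobilised His-Ras, overnight 4 °C; cpd 20 μM (or dilution series for IC50), 1% DMSO, 3 h RT; optional His-Sos […] last hour; Cy3- or Cy5-GTP 100 nM, 45 min RT; 3× wash; bound fluorescence read.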

[2] = target: Rho-A (Homo sapiens, UniProt P61586)
How it was run: (§1)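 Compounds tested at 20 μM or in serial dilution for IC50 against nickel-captured His-tagged GTPase, 3 hours at room temperature, with or without His-Sos GEF added for last hour. Fluorescent GTP then added at 100 nM for 45 minutes; wells washed, bound label measured by fluorescence.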

[3] = target: Rac-1 (Homo sapiens, UniProt P63000)
How it was run: as §1

[4] = with SOS, read-out: KRas G12D mutant + SOS: % inh.
[5] = without SOS, read-out: KRas G12D mutant: % inh.
[6] = with SOS, read-out: Rho-A + SOS: % inh.
[7] = without SOS, read-out: Rho-A: % inh.
[8] = with SOS, read-out: Rac-1 + SOS: % inh.
[9] = without SOS, read-out: Rac-1: % inh.

SMILES | inhibition at 20 µM [1, 4] | inhibition at 20 µM [1, 5] | inhibition at 20 µM [2, 6] | inhibition at 20 µM [2, 7] | inhibition at 20 µM [3, 8] | inhibition at 20 µM [3, 9]
O=C(c1nc(-c2ccccn2)nc(O)c1O)N1CCOCC1 [drawing 935] | 26 to 50% | 26 to 50% | 26 to 50% | 26 to 50% | 26 to 50% | 51 to 75%
COc1cccc(Oc2nc(-c3ccccn3)nc(O)c2OC)c1 [drawing 936] | 51 to 75% | 76 to 100% | 51 to 75% | 51 to 75% | 76 to 100% | 76 to 100%
COc1c(O)nc(-c2ccccn2)nc1Oc1cccnc1 [drawing 937] | 51 to 75% | 51 to 75% | 76 to 100% | 76 to 100% | 76 to 100% | 76 to 100%
COc1c(O)nc(-c2ccccn2)nc1Oc1ccc2ncccc2c1 [drawing 939] | 26 to 50% | 51 to 75% | 76 to 100% | 76 to 100% | 51 to 75% | 51 to 75%
Cc1cnc(-c2nc(O)c3scc(-c4ccccn4)c3n2)n1C [drawing 943] | 1 to 25% | 51 to 75% | 51 to 75% | 51 to 75% | 51 to 75% | 1 to 25%
O=C(NC1CCC1)c1nc(-c2ccccn2)nc(O)c1O [drawing 944] | 26 to 50% | 51 to 75% | 76 to 100% | 51 to 75% | 76 to 100% | 76 to 100%
CC(C)CNC(=O)c1nc(-c2ccccn2)nc(O)c1O [drawing 946] | 1 to 25% | 51 to 75% | 51 to 75% | 51 to 75% | 76 to 100% | 51 to 75%
O=C(NC1CCCC1)c1nc(-c2ccccn2)nc(O)c1O [drawing 947] | 1 to 25% | 51 to 75% | 51 to 75% | 51 to 75% | 51 to 75% | 51 to 75%
COc1c(O)nc(-c2ccccn2)nc1Oc1ccccc1 [drawing 948] | 26 to 50% | 26 to 50% | 76 to 100% | 51 to 75% | 76 to 100% | 76 to 100%
COCCc1ccc(Oc2nc(-c3ccccn3)nc(O)c2OC)cc1 [drawing 949] | 26 to 50% | 51 to 75% | 76 to 100% | 76 to 100% | 76 to 100% | 51 to 75%
COc1ccc(Oc2nc(-c3ccccn3)nc(O)c2OC)cc1 [drawing 950] | 26 to 50% | 76 to 100% | 51 to 75% | 51 to 75% | 51 to 75% | 76 to 100%
Oc1nc(-c2cn3ccccc3n2)nc2c(-c3ccccn3)csc12 [drawing 951] | 1 to 25% | 26 to 50% | 1 to 25% | 1 to 25% | 26 to 50% | 1 to 25%
COC1CCN(c2nc(-c3nccn3C)nc3sc(-c4ccc(N)nc4C)c(-c4ccccc4)c23)C1 (stereo not drawn) [drawing 953] | 1 to 25% | 1 to 25% | 26 to 50% | 0% | 0% | 0%
COC1CCN(c2nc(-c3nccn3C)nc3sc(-c4ccncc4C)c(-c4ccccc4)c23)C1 (stereo not drawn) [drawing 955] | 26 to 50% | 26 to 50% | 0% | 51 to 75% | 0% | 1 to 25%
O=C(NCc1ccccc1)c1nc(-c2ccccn2)nc(O)c1O [drawing 956] | 51 to 75% | 51 to 75% | 26 to 50% | 0% | 51 to 75% | 51 to 75%
Cn1ccnc1-c1nc(O)c(O)c(C(=O)NC2CCCC2)n1 [drawing 962] | 26 to 50% | 51 to 75% | 76 to 100% | 26 to 50% | 51 to 75% | 51 to 75%
CCN(CC)C(=O)c1nc(-c2nccn2C)nc(O)c1O [drawing 964] | 1 to 25% | 51 to 75% | 51 to 75% | 26 to 50% | 1 to 25% | 26 to 50%
O=C(c1nc(-c2ccccn2)nc(O)c1O)N1CCCC1 [drawing 966] | 1 to 25% | 51 to 75% | 51 to 75% | 76 to 100% | 26 to 50% | 26 to 50%

Continued, values first:

inhibition at 20 µM [1, 4] | inhibition at 20 µM [1, 5] | inhibition at 20 µM [2, 6] | inhibition at 20 µM [2, 7] | inhibition at 20 µM [3, 8] | inhibition at 20 µM [3, 9] | SMILES
26 to 50% | 26 to 50% | 51 to 75% | 51 to 75% | 26 to 50% | 51 to 75% | CN(Cc1ccccc1)C(=O)c1nc(-c2ccccn2)nc(O)c1O [drawing 934]
51 to 75% | 51 to 75% | 51 to 75% | 51 to 75% | 76 to 100% | 76 to 100% | COc1c(O)nc(-c2ccccn2)nc1Oc1cnn(C)c1 [drawing 938]
51 to 75% | 51 to 75% | 51 to 75% | 51 to 75% | 0% | 0% | COCC1CN(c2nc(-c3nccn3C)nc3sc(-c4cccc(OC)c4F)c(-c4ccc(OC)cc4)c23)C1 [drawing 940]
51 to 75% | 51 to 75% | 51 to 75% | 51 to 75% | 0% | 0% | COc1ccc(-c2c(-c3cccc(OC)c3F)sc3nc(-c4nccn4C)nc(N4CCC(OC)C4)c23)cc1 (stereo not drawn) [drawing 941]
26 to 50% | 76 to 100% | 76 to 100% | 76 to 100% | 51 to 75% | 51 to 75% | Cc1cn(C)c(-c2nc(O)c3scc(-c4ccccn4)c3n2)n1 [drawing 942]
1 to 25% | 1 to 25% | 26 to 50% | 26 to 50% | 51 to 75% | 51 to 75% | COCCN(C)C(=O)c1nc(-c2ccccn2)nc(O)c1O [drawing 945]
51 to 75% | 51 to 75% | 26 to 50% | 0% | 0% | 0% | COC1CCN(c2nc(-c3nccn3C)nc3sc(-c4ccccc4CO)c(-c4ccccc4)c23)C1 (stereo not drawn) [drawing 952]
51 to 75% | 1 to 25% | 0% | 0% | 0% | 0% | COC1CCN(c2nc(-c3nccn3C)nc3sc(-c4ccc(CO)cc4)c(-c4ccccc4)c23)C1 (stereo not drawn) [drawing 954]
51 to 75% | 26 to 50% | 26 to 50% | 1 to 25% | 1 to 25% | 1 to 25% | COC1CCN(c2nc(-c3nccn3C)nc3sc(Br)c(-c4ccccc4)c23)C1 (stereo not drawn) [drawing 957]
51 to 75% | 51 to 75% | 26 to 50% | 26 to 50% | 51 to 75% | 26 to 50% | COC1CCN(c2nc(-c3nccn3C)nc3sc(-c4ccnc(N(C)C)c4)c(-c4ccccc4)c23)C1 (stereo not drawn) [drawing 958]
26 to 50% | 51 to 75% | 51 to 75% | 1 to 25% | 51 to 75% | 76 to 100% | COC(=O)c1nc(-c2nccn2C)nc(O)c1O [drawing 959]
26 to 50% | 51 to 75% | 51 to 75% | 26 to 50% | 51 to 75% | 76 to 100% | Cn1ccnc1-c1nc(O)c(O)c(C(=O)NC2CCC2)n1 [drawing 960]
1 to 25% | 26 to 50% | 51 to 75% | 26 to 50% | 1 to 25% | 51 to 75% | Cn1ccnc1-c1nc(O)c(O)c(C(=O)N2CCCCC2)n1 [drawing 961]
1 to 25% | 26 to 50% | 51 to 75% | 1 to 25% | 26 to 50% | 51 to 75% | Cn1ccnc1-c1nc(O)c(O)c(C(=O)N2CCCC2)n1 [drawing 963]
26 to 50% | 51 to 75% | 76 to 100% | 51 to 75% | 51 to 75% | 51 to 75% | CC(C)NC(=O)c1nc(-c2nccn2C)nc(O)c1O [drawing 965]
26 to 50% | 51 to 75% | 76 to 100% | 76 to 100% | 51 to 75% | 76 to 100% | O=C(c1nc(-c2ccccn2)nc(O)c1O)N1CCc2ccccc2C1 [drawing 967]
